Experimental data from the supplement of paper PMC10307832.

Tests used:
Assay in all cases: relative viability (nuclei count vs DMSO), 5 days (fraction); higher = more cells survive
[1] = compound: CC[C@@H]1C(=O)N(C)c2cnc(Nc3ccc(C(=O)NC4CCN(C)CC4)cc3OC)nc2N1C1CCCC1 [BI-2536] + N=C(N)NC(=N)NCCc1ccccc1 [Phenformin] (partner 250 µM)
Outline: (§1)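 Relative viability is defined as nuclei in treated wells over nuclei in vehicle wells. Duplicate plates were run and medians reported. Lung cancer cell lines in 1536-well plates were dosed by pin tool one day after seeding, with one drug or with a fixed anchor-drug dose plus five library-drug doses (not always all listed) in √10 steps, and nuclei were counted after 5 days.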

[2] = compound: CC1CC(=O)N(C2=CN=C(N=C2N1C3CCCC3)NC4=C(C=C(C=C4)C(=O)NC5CCN(CC5)C)OC)C [NPK76-II-72-1] + CS(=O)(=O)CCNCc1ccc(-c2ccc3ncnc(Nc4ccc(OCc5cccc(F)c5)c(Cl)c4)c3c2)o1 [Lapatinib] (partner 2 µM)
Outline: as §1

[3] = compound: CC[C@@H]1C(=O)N(C)c2cnc(Nc3ccc(C(=O)NC4CCN(C)CC4)cc3OC)nc2N1C1CCCC1 [BI-2536] + CC(=O)c1c(C)c2cnc(Nc3ccc(N4CCNCC4)cn3)nc2n(C2CCCC2)c1=O [Palbociclib] (partner 0.5 µM)
Outline: as §1

[4] = compound: CC[C@@H]1C(=O)N(C)c2cnc(Nc3ccc(C(=O)NC4CCN(C)CC4)cc3OC)nc2N1C1CCCC1 [BI-2536] + CCNC(=O)c1noc(-c2cc(C(C)C)c(O)cc2O)c1-c1ccc(CN2CCOCC2)cc1 [Luminespib] (partner 0.01 µM)
Outline: as §1

Row | Cell Line | relative viability ([1]; first compound 0.01 µM) | relative viability ([1]; first compound 0.03162 µM) | relative viability ([1]; first compound 0.1 µM) | relative viability ([1]; first compound 0.3162 µM) | relative viability ([1]; first compound 1 µM) | relative viability ([2]; first compound 0.01 µM) | relative viability ([2]; first compound 0.03162 µM) | relative viability ([2]; first compound 0.1 µM) | relative viability ([2]; first compound 0.3162 µM) | relative viability ([2]; first compound 1 µM) | relative viability ([3]; first compound 0.01 µM) | relative viability ([3]; first compound 0.03162 µM) | relative viability ([3]; first compound 0.1 µM) | relative viability ([3]; first compound 0.3162 µM) | relative viability ([3]; first compound 1 µM) | relative viability ([4]; first compound 0.01 µM) | relative viability ([4]; first compound 0.03162 µM) | relative viability ([4]; first compound 0.1 µM) | relative viability ([4]; first compound 0.3162 µM) | relative viability ([4]; first compound 1 µM)
1 | RERF-LC-KJ | 0.403 | 0.297 | 0.216 | 0.211 | 0.224 | 0.818 | 0.869 | 0.841 | 0.818 | 0.979 | 1.09 | 0.949 | 0.491 | 0.266 | 0.241 | 1.28 | 0.614 | 0.26 | 0.306 | 0.303
2 | A-427 | 0.35 | 0.273 | 0.151 | 0.0945 | 0.134 | 1.07 | 1.04 | 1.02 | 1.03 | 0.953 | 0.519 | 0.498 | 0.453 | 0.219 | 0.203 | 0.841 | 0.829 | 0.525 | 0.144 | 0.137
3 | NCI-H441 | 0.805 | 0.492 | 0.23 | 0.217 | 0.228 | – | – | – | – | – | 0.201 | 0.203 | 0.183 | 0.132 | 0.122 | 0.296 | 0.32 | 0.288 | 0.237 | 0.271
4 | NCI-H1703 | – | – | – | – | – | 1.16 | 1.2 | 1.21 | 1.05 | 1.2 | – | – | – | – | – | – | – | – | – | –
5 | NCI-H1792 | 0.451 | 0.49 | 0.301 | 0.0773 | 0.0991 | 0.894 | 0.965 | 0.923 | 0.964 | 1.01 | 0.72 | 0.706 | 0.76 | 0.349 | 0.215 | 0.485 | 0.432 | 0.388 | 0.229 | 0.28
6 | Calu-6 | – | – | – | – | – | 1.01 | 1.12 | 1.08 | 1.03 | 1.17 | – | – | – | – | – | – | – | – | – | –
7 | SK-LU-1 | 0.577 | 0.321 | 0.209 | 0.12 | 0.151 | 0.897 | 0.867 | 0.96 | 0.776 | 1.08 | 0.328 | 0.419 | 0.323 | 0.202 | 0.221 | 0.216 | 0.2 | 0.167 | 0.174 | 0.169
8 | PC-3 [JPC-3] | 0.477 | 0.461 | 0.271 | 0.202 | 0.176 | 0.479 | 0.453 | 0.448 | 0.463 | 0.439 | 0.54 | 0.828 | 0.5 | 0.416 | 0.424 | 0.705 | 0.683 | 0.496 | 0.215 | 0.205
9 | EMC-BAC-2 | 0.547 | 0.477 | 0.352 | 0.155 | 0.208 | 0.9 | 1.05 | 0.871 | 0.884 | 0.912 | 0.514 | 0.502 | 0.455 | 0.257 | 0.297 | 1.22 | 1.19 | 1.08 | 0.251 | 0.22
10 | LK-2 | 0.473 | 0.362 | 0.165 | 0.15 | 0.163 | 0.83 | 0.886 | 0.877 | 0.774 | 1.12 | 0.586 | 0.525 | 0.464 | 0.15 | 0.106 | 0.184 | 0.176 | 0.155 | 0.177 | 0.176
